Here are results for five compounds from ChEMBL document CHEMBL1148023, “Synthesis and antibacterial activity of derivatives of 6-O-allylic acylides” (2007).

Molecules are shown by their SMILES. ≈ marks a conversion by molar mass, not a printed value.

Holding throughout (type): functional
Assay [1] relates to Streptococcus pyogenes. The assay is described as follows: Antibacterial activity against erythromycin-susceptible Streptococcus pyogenes 01-740 by broth microdilution method. For orientation: Broth dilution looks for growth in wells or tubes with falling amounts of substance.
The test system of assay [2] is Streptococcus pneumoniae. As to the kind of experiment: Antibacterial activity against erythromycin-resistant Streptococcus pneumoniae 03-436 by broth microdilution method.
In assay [3] the test system is Staphylococcus aureus. The assay is described as follows: Antibacterial activity against methicillin-sensitive Staphylococcus aureus 01-431 by broth microdilution method.
For assay [4], the system named is Staphylococcus epidermidis. The assay is described as follows: Antibacterial activity against methicillin-sensitive Staphylococcus epidermidis 01-1005 by broth microdilution method.
Assay [5] deals with Staphylococcus aureus. The assay is described as follows: Antibacterial activity against methicillin-resistant Staphylococcus aureus 01-429 by broth microdilution method.
The subject of assay [6] is Streptococcus pneumoniae. The assay is described as follows: Antibacterial activity against erythromycin-resistant Streptococcus pneumoniae 03-458 by broth microdilution method.
Assay [7] deals with Staphylococcus epidermidis. As to the kind of experiment: Antibacterial activity against methicillin-sensitive Staphylococcus epidermidis 01-1004 by broth microdilution method.
The subject of assay [8] is Staphylococcus epidermidis. As to the kind of experiment: Antibacterial activity against methicillin-sensitive Staphylococcus epidermidis 01-1091 by broth microdilution method.
Assay [9] relates to Staphylococcus epidermidis. As to the kind of experiment: Antibacterial activity against methicillin-resistant Staphylococcus epidermidis 01-1059 by broth microdilution method.
Assay [10] deals with Staphylococcus aureus. As to the kind of experiment: Antibacterial activity against methicillin-resistant Staphylococcus aureus 01-483 by broth microdilution method.
The subject of assay [11] is Staphylococcus aureus. The assay is described as follows: Antibacterial activity against methicillin-sensitive Staphylococcus aureus 01-430 by broth microdilution method.
The subject of assay [12] is Staphylococcus epidermidis. The assay is described as follows: Antibacterial activity against methicillin-resistant Staphylococcus epidermidis 01-1056 by broth microdilution method.
Assay [13] relates to Streptococcus pneumoniae. The assay is described as follows: Antibacterial activity against Streptococcus pneumoniae ATCC 49619 by broth microdilution method.
In assay [14] the test system is Streptococcus pneumoniae. As to the kind of experiment: Antibacterial activity against erythromycin-resistant Streptococcus pneumoniae 03-451 by broth microdilution method.
For assay [15], the system named is Staphylococcus epidermidis. The assay is described as follows: Antibacterial activity against methicillin-resistant Staphylococcus epidermidis 01-1090 by broth microdilution method.
For assay [16], the system named is Streptococcus pyogenes. The assay is described as follows: Antibacterial activity against erythromycin-susceptible Streptococcus pyogenes 01-804 by broth microdilution method.
The test system of assay [17] is Streptococcus pyogenes. As to the kind of experiment: Antibacterial activity against erythromycin-resistant Streptococcus pyogenes 03-680 by broth microdilution method.
In assay [18] the test system is Streptococcus pyogenes. The assay is described as follows: Antibacterial activity against erythromycin-susceptible Streptococcus pyogenes 01-469 by broth microdilution method.
The test system of assay [19] is Staphylococcus aureus. As to the kind of experiment: Antibacterial activity against methicillin-sensitive Staphylococcus aureus 01-481 by broth microdilution method.
Assay [20] deals with Staphylococcus aureus. The assay is described as follows: Antibacterial activity against methicillin-resistant Staphylococcus aureus 01-433 by broth microdilution method.

Broadly, the MIC is the lowest concentration that inhibits growth of the organism. Low readings indicate greater potency, high ones weaker potency. In the case of `C=CCO[C@@H]1C[C@@H](C)C(=O)[C@H](C)[C@H]2OC(=O)O[C@]2(C)[C@@H](CC)OC(=O)[C@H](C)[C@@H](OC(=O)Cc2c[nH]c3ccccc23)[C@H](C)C1O[C@@H]1O[C@H](C)C[C@H](N(C)C)[C@H]1O` (stereo not given in full), the MIC against Streptococcus pyogenes [1] was 0.5 µg/mL (≈ 0.637 µM); in the assay on Streptococcus pneumoniae [2], 32 µg/mL (≈ 40.8 µM); against Staphylococcus aureus [3], 8 µg/mL (≈ 10.2 µM); in assay [4], 4 µg/mL (≈ 5.1 µM); against Staphylococcus aureus [5], 16 µg/mL (≈ 20.4 µM); in the assay with Streptococcus pneumoniae [6], 32 µg/mL (≈ 40.8 µM). Further, the MIC in assay [7] was 4 µg/mL (≈ 5.1 µM); in [8], 4 µg/mL (≈ 5.1 µM); in [9], 32 µg/mL (≈ 40.8 µM); against Staphylococcus aureus [10], 16 µg/mL (≈ 20.4 µM); against Staphylococcus aureus [11], 8 µg/mL (≈ 10.2 µM); in assay [12], 32 µg/mL (≈ 40.8 µM). Besides, the MIC was 2 µg/mL (≈ 2.55 µM) against Streptococcus pneumoniae [13]; 16 µg/mL (≈ 20.4 µM) in the assay with Streptococcus pneumoniae [14]; 32 µg/mL (≈ 40.8 µM) in assay [15]; 0.5 µg/mL (≈ 0.637 µM) against Streptococcus pyogenes [16]; 16 µg/mL (≈ 20.4 µM) with Streptococcus pyogenes [17]; 0.5 µg/mL (≈ 0.637 µM) in the assay with Streptococcus pyogenes [18]. Besides, the minimal inhibitory concentration (MIC) against Staphylococcus aureus [19] and with Staphylococcus aureus [20] was 16 µg/mL (≈ 20.4 µM) throughout.

Consider `C=CCO[C@@H]1C[C@@H](C)C(=O)[C@H](C)[C@H]2OC(=O)O[C@]2(C)[C@@H](CC)OC(=O)[C@H](C)[C@@H](OC(=O)Cc2ccc(Cl)cc2)[C@H](C)[C@H]1OC1O[C@H](C)C[C@H](N(C)C)[C@H]1O` (stereo not given in full), for which the MIC in the assay on Streptococcus pyogenes [1] is 0.25 µg/mL (≈ 0.32 µM); in the assay on Streptococcus pneumoniae [2], 16 µg/mL (≈ 20.5 µM); in the assay on Staphylococcus aureus [3] it was 4 µg/mL (≈ 5.13 µM); in assay [4], 2 µg/mL (≈ 2.56 µM); in the assay with Staphylococcus aureus [5] it was 16 µg/mL (≈ 20.5 µM); against Streptococcus pneumoniae [6], 8 µg/mL (≈ 10.3 µM). The MIC in [7] worked out at 2 µg/mL (≈ 2.56 µM); in assay [8] it was 2 µg/mL (≈ 2.56 µM); in assay [9] it was 16 µg/mL (≈ 20.5 µM); with Staphylococcus aureus [10], 16 µg/mL (≈ 20.5 µM); in the assay on Staphylococcus aureus [11] it was 4 µg/mL (≈ 5.13 µM); in [12], 32 µg/mL (≈ 41 µM). In addition, the MIC against Streptococcus pneumoniae [13] turned out to be 1 µg/mL (≈ 1.28 µM); with Streptococcus pneumoniae [14], 8 µg/mL (≈ 10.3 µM); in assay [15], 16 µg/mL (≈ 20.5 µM); in the assay on Streptococcus pyogenes [16], 0.5 µg/mL (≈ 0.641 µM); in the assay on Streptococcus pyogenes [17], 8 µg/mL (≈ 10.3 µM); against Streptococcus pyogenes [18], 0.5 µg/mL (≈ 0.641 µM). In addition, the MIC turned out to be 8 µg/mL (≈ 10.3 µM) in the assay on Staphylococcus aureus [19] and 16 µg/mL (≈ 20.5 µM) in the assay with Staphylococcus aureus [20].

Regarding `C=CCO[C@@H]1C[C@@H](C)C(=O)[C@H](C)[C@H]2OC(=O)O[C@]2(C)[C@@H](CC)OC(=O)[C@H](C)[C@@H](OC(=O)Cc2ccccc2Cl)[C@H](C)[C@H]1OC1O[C@H](C)C[C@H](N(C)C)[C@H]1O` (stereo not given in full), the MIC in the assay with Streptococcus pyogenes [1] was 0.062 µg/mL (≈ 0.0795 µM); in the assay on Streptococcus pneumoniae [2], 8 µg/mL (≈ 10.3 µM); against Staphylococcus aureus [3], 1 µg/mL (≈ 1.28 µM); in [4], 1 µg/mL (≈ 1.28 µM); with Staphylococcus aureus [5] it was 16 µg/mL (≈ 20.5 µM); in the assay on Streptococcus pneumoniae [6], 2 µg/mL (≈ 2.56 µM). Also, the MIC in assay [7] worked out at 1 µg/mL (≈ 1.28 µM); in assay [8], 1 µg/mL (≈ 1.28 µM); in [9], 8 µg/mL (≈ 10.3 µM); with Staphylococcus aureus [10] it was 4 µg/mL (≈ 5.13 µM); with Staphylococcus aureus [11], 1 µg/mL (≈ 1.28 µM); in assay [12] it was 32 µg/mL (≈ 41 µM). Moreover, the MIC was found to be 0.25 µg/mL (≈ 0.32 µM) in the assay with Streptococcus pneumoniae [13]; 4 µg/mL (≈ 5.13 µM) against Streptococcus pneumoniae [14]; 4 µg/mL (≈ 5.13 µM) in assay [15]; 0.125 µg/mL (≈ 0.16 µM) with Streptococcus pyogenes [16]; 16 µg/mL (≈ 20.5 µM) with Streptococcus pyogenes [17]; 0.062 µg/mL (≈ 0.0795 µM) in the assay with Streptococcus pyogenes [18]. Besides, the MIC against Staphylococcus aureus [19] came to 4 µg/mL (≈ 5.13 µM); with Staphylococcus aureus [20], 16 µg/mL (≈ 20.5 µM).

Take `C=CCO[C@@H]1C[C@@H](C)C(=O)[C@H](C)[C@H]2OC(=O)O[C@]2(C)[C@@H](CC)OC(=O)[C@H](C)[C@@H](OC(=O)Cc2cccnc2)[C@H](C)[C@H]1O[C@@H]1O[C@H](C)C[C@H](N(C)C)[C@H]1O`: the MIC against Streptococcus pyogenes [1] was found to be 0.125 µg/mL (≈ 0.167 µM); in the assay on Streptococcus pneumoniae [2] it was 2 µg/mL (≈ 2.68 µM); in the assay with Staphylococcus aureus [3] it was 1 µg/mL (≈ 1.34 µM); in assay [4], 0.5 µg/mL (≈ 0.669 µM); with Staphylococcus aureus [5], 32 µg/mL (≈ 42.8 µM); against Streptococcus pneumoniae [6], 2 µg/mL (≈ 2.68 µM). The MIC in assay [7] stood at 0.5 µg/mL (≈ 0.669 µM); in [8], 0.5 µg/mL (≈ 0.669 µM); in assay [9], 32 µg/mL (≈ 42.8 µM); with Staphylococcus aureus [10], 8 µg/mL (≈ 10.7 µM); in the assay with Staphylococcus aureus [11], 1 µg/mL (≈ 1.34 µM); in [12], 32 µg/mL (≈ 42.8 µM). The MIC in the assay with Streptococcus pneumoniae [13] worked out at 0.25 µg/mL (≈ 0.335 µM); in the assay with Streptococcus pneumoniae [14] it was 2 µg/mL (≈ 2.68 µM); in [15], 2 µg/mL (≈ 2.68 µM); against Streptococcus pyogenes [16], 0.125 µg/mL (≈ 0.167 µM); against Streptococcus pyogenes [17], 16 µg/mL (≈ 21.4 µM); in the assay on Streptococcus pyogenes [18] it was 0.125 µg/mL (≈ 0.167 µM). The MIC with Staphylococcus aureus [19] came out at 2 µg/mL (≈ 2.68 µM); against Staphylococcus aureus [20], 32 µg/mL (≈ 42.8 µM).

For `C=CCO[C@@H]1C[C@@H](C)C(=O)[C@H](C)[C@H]2OC(=O)O[C@]2(C)[C@@H](CC)OC(=O)[C@H](C)[C@@H](OC(=O)COc2ccccc2)[C@H](C)[C@H]1OC1O[C@H](C)C[C@H](N(C)C)[C@H]1O` (stereo not given in full), the MIC with Streptococcus pyogenes [1] stood at 0.5 µg/mL (≈ 0.656 µM); with Streptococcus pneumoniae [2] it was 32 µg/mL (≈ 42 µM); with Staphylococcus aureus [3], 16 µg/mL (≈ 21 µM); in assay [4] it was 8 µg/mL (≈ 10.5 µM); against Staphylococcus aureus [5] it was 32 µg/mL (≈ 42 µM); against Streptococcus pneumoniae [6], 16 µg/mL (≈ 21 µM). Besides, the MIC in assay [7] was 8 µg/mL (≈ 10.5 µM); in assay [8], 8 µg/mL (≈ 10.5 µM); in assay [9], 32 µg/mL (≈ 42 µM); in the assay with Staphylococcus aureus [10], 32 µg/mL (≈ 42 µM); in the assay on Staphylococcus aureus [11], 16 µg/mL (≈ 21 µM); in assay [12], 32 µg/mL (≈ 42 µM). Besides, the MIC worked out at 2 µg/mL (≈ 2.62 µM) in the assay on Streptococcus pneumoniae [13]; 16 µg/mL (≈ 21 µM) against Streptococcus pneumoniae [14]; 32 µg/mL (≈ 42 µM) in assay [15]; 1 µg/mL (≈ 1.31 µM) in the assay on Streptococcus pyogenes [16]; 16 µg/mL (≈ 21 µM) with Streptococcus pyogenes [17]; 0.5 µg/mL (≈ 0.656 µM) with Streptococcus pyogenes [18]. Moreover, the minimal inhibitory concentration (MIC) in the assay with Staphylococcus aureus [19] and in the assay with Staphylococcus aureus [20] was 32 µg/mL (≈ 42 µM) in each case.
